Laboratory results: patent US10538516B2, “Oxadiazole derivative and pharmaceutical containing same” (National Center for Geriatrics and Gerontology, priority 2015, dated 2020)
Read-outs that look alike come from different tables or passages of the source.

Experiments:
[1] = target: T1, GAβ-dependent amyloid fibril formation (Human Aβ1-40 + GM1-containing liposome) (Homo sapiens, UniProt P05067); test: Thioflavin T (ThT) assay of GAβ-dependent amyloid fibril formation (Aβ1-40 with GM1-containing liposome); format: biochemical; conditions: final concentration of the compound 25 μM
T1 construct: Human Aβ1-40 (cat. #4307-v, prepared by Peptide Institute); purchased Peptide Institute 4307-v
Outline: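 Human Aβ1-40 (75 μM stock) pre-incubated 10 min at room temperature with compound (75 or 15 μM solution), then GM1-containing cholesterol/sphingomyelin liposome added and incubated 37° C, 18 hours. Fibrils quantified by ThT fluorescence (ex 430/em 490 nm, pH 8.5 glycine buffer); inhibition as ratio to compound-free control.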

[2] = inhibition rate against amyloid fibril formation, read-out: Inhibitory activity ABC evaluation

T1 sequence (P05067 672-711 limits assumed): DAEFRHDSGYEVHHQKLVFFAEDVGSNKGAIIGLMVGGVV

| Structure (SMILES) | inhibition at 25 µM [1, 2] [%] | melting point [°C] | inhibition at 25 µM ([1]; ratio of ThT fluorescence intensity with/without compound, 37° C. for 18 hours, read-out: inhibition rate against amyloid fibril formation (inhibitory activity on a scale of A to C)) [%] |
| --- | --- | --- | --- |
| COc1ccc(-c2noc(CCC(=O)N(CCO)c3cccc(Cl)c3)n2)cc1 [Compound 3, N-(3-chlorophenyl)-N-(2-hydroxyethyl)-3-{3-(4-methoxyphenyl)-1,2,4-oxadiazol-5-yl}propanamide] | < 40 | 95 |  |
| CCCN(C(=O)CCc1nc(-c2ccc(OC)cc2)no1)c1cccc(Cl)c1 [Compound 2, N-(3-chlorophenyl)-3-{3-(4-methoxyphenyl)-1,2,4-oxadiazol-5-yl}-N-propylpropanamide] | 40 to 80 | 85 |  |
| COc1ccc(-c2noc(CCC(=O)Nc3cc(Cl)ccn3)n2)cc1 [Compound 4, N-(4-chloropyridin-2-yl)-3-{3-(4-methoxyphenyl)-1,2,4-oxadiazol-5-yl}propanamide] | < 40 | 167 |  |
| COc1ccc(-c2noc(CCC(=O)N(CCCO)c3cccc(Cl)c3)n2)cc1 [Compound 6, N-(3-chlorophenyl)-N-(3-hydroxypropyl)-3-{3-(4-methoxyphenyl)-1,2,4-oxadiazol-5-yl}propanamide] | 40 to 80 | 80 |  |
| CCCN(C(=O)Cc1nc(-c2ccc(OC)cc2)no1)c1cccc(Cl)c1 [Compound 1, N-(3-chlorophenyl)-2-{3-(4-methoxyphenyl)-1,2,4-oxadiazol-5-yl}-N-propylacetamide] | < 40 | 108 |  |
| O=C(NC(CO)c1nc(-c2ccc(C(F)(F)F)cc2)no1)c1ccc2[nH]ccc2c1 (stereo not drawn) [Compound 183, N-(2-hydroxy-1-{3-[4-(trifluoromethyl)phenyl]-1,2,4-oxadiazol-5-yl}ethyl)-1H-indole-5-carboxamide] | > 80 |  |  |
| O=C(N[C@@H](CO)c1nc(-c2c[nH]c3ccc(C(F)(F)F)cc23)no1)c1ccc(F)cc1 [Compound 262, 4-fluoro-N-[(1S)-2-hydroxy-1-{3-[5-(trifluoromethyl)-1H-indol-3-yl]-1,2,4-oxadiazol-5-yl}ethyl] benzamide] | 40 to 80 |  |  |
| COc1ccc(-c2noc([C@@H](NC(=O)c3ccc(Cl)cc3)[C@@H](C)O)n2)cc1 [Compound 132, 4-chloro-N-((1S,2R)-2-hydroxy-1-(3-(4-methoxy-phenyl)-1,2,4-oxadiazol-5-yl)propyl)benzamide] | > 80 |  | > 80 |
| CCCN(C(=O)CCc1nc(-c2ccc(OC)cc2)no1)c1cncc(Cl)c1 [Compound 5, N-(5-chloropyridin-3-yl)-3-{3-(4-methoxyphenyl)-1,2,4-oxadiazol-5-yl}-N-propylpropanamide] | 40 to 80 |  |  |
